Laboratory results as given in ChEMBL document CHEMBL3301464, “MMV Malaria Box anti-babesial screening”.

Columns and labels:
[1] = (§1) MMV: Anti-babesial activity assay. Parasite pRBCs at 1% parasitemia were cultivated in 100 ul with 96-well plates at 2.5% and 5% hematocrits. The parasites were cultivated in triplicate for 4 days without replacement of the medium for each concentration of the compound.; format: functional, Babesia caballi
[2] = as §1; format: functional, Babesia bigemina
[3] = as §1; format: functional, Babesia bovis
[4] = as §1; format: functional, Babesia equi

N=c1n(CCN2CCCCC2)c2ccccc2n1CC(=O)c1ccc(Cl)c(Cl)c1
IC50 [1]: 3.73 µM
IC50 [2]: 0.066 µM
IC50 [3]: 0.077 µM
IC50 [4]: 15.9 µM

CCCC(c1nnnn1C1CCCCC1)N1CCN(C(=O)c2ccco2)CC1 (stereo not drawn)
IC50 [1]: 0.13 µM
IC50 [2]: 0.083 µM
IC50 [3]: 0.059 µM
IC50 [4]: 0.219 µM

Cc1ccc(Cn2c(N3CCC(C(=O)NCc4cccs4)CC3)nc3ccccc32)cc1
IC50 [1]: > 25 µM
IC50 [2]: 10 µM
IC50 [3]: 17.7 µM
IC50 [4]: 12.9 µM

COc1cccc(C2(C)Nc3ccccc3-c3nc4ccccc4n32)c1 (stereo not drawn)
IC50 [1]: 1 µM
IC50 [2]: 25 µM
IC50 [3]: 13.9 µM
IC50 [4]: 10 µM

CC(C)OCc1cc(CN2CCN(c3cccc(Cl)c3)CC2)c(O)c2ncccc12
IC50 [1]: 0.073 µM
IC50 [2]: 0.92 µM
IC50 [3]: 0.59 µM
IC50 [4]: 1 µM

CCc1c(C)c(=N)c2ccccc2n1C
IC50 [1]: 0.26 µM
IC50 [2]: 3.42 µM
IC50 [3]: 18.4 µM
IC50 [4]: 7.23 µM

COc1ccc(-c2nc(N3CCN(C(=O)C4CCCCC4)CC3)c3c4c(sc3n2)CCCC4)cc1
IC50 [1]: 11.9 µM
IC50 [2]: 1 µM
IC50 [3]: 1.07 µM
IC50 [4]: 8.36 µM

CCOc1ccc(-n2cc(-c3ccccc3)c3c(SCc4cc(C)ccc4C)ncnc32)cc1
IC50 [1]: 16.5 µM
IC50 [2]: 10.7 µM
IC50 [3]: 14.6 µM
IC50 [4]: 13.9 µM

OCCNc1nc(Nc2ccc(Cl)c(Cl)c2)nc2ccccc12
IC50 [1]: 0.1 µM
IC50 [2]: 3.34 µM
IC50 [3]: 0.52 µM
IC50 [4]: 1.39 µM

Cc1cc(=O)oc2c1ccc1oc(C(=O)c3ccccc3)c(C)c12
IC50 [1]: 5.69 µM
IC50 [2]: 11.9 µM
IC50 [3]: 10.1 µM
IC50 [4]: 12.1 µM

CCCCC(O)(c1ccc(Cl)cc1)C(CN1CCOCC1)c1ccc(Cl)cc1 (stereo not drawn)
IC50 [1]: 0.55 µM
IC50 [2]: 0.1 µM
IC50 [3]: 11.9 µM
IC50 [4]: 13.2 µM

COc1ccccc1CNC(=O)CCn1c(=O)[nH]c2ccsc2c1=O
IC50 [1]: 2.05 µM
IC50 [2]: 0.68 µM
IC50 [3]: 8.93 µM
IC50 [4]: 15.2 µM

COC(=O)c1ccc(Cl)c2c1C1C=CCC1C(c1cccc3ccccc13)N2 (stereo not drawn)
IC50 [1]: 12 µM
IC50 [2]: 10 µM
IC50 [3]: 15.7 µM
IC50 [4]: 17.8 µM

CCOc1ccccc1CN1CCc2nc3cc(C(C)(C)C)nn3c(O)c2C1
IC50 [1]: 0.068 µM
IC50 [2]: 9.87 µM
IC50 [3]: 20.2 µM
IC50 [4]: 10.1 µM

CN(C)c1ccc(C=Cc2nc(=O)c3ccccc3o2)cc1
IC50 [1]: 14.6 µM
IC50 [2]: 16.8 µM
IC50 [3]: 16.2 µM
IC50 [4]: 11.5 µM

OC1=C2C(=Nc3ccccc3SC2c2ccccc2)c2ccccc21 (stereo not drawn)
IC50 [1]: 8.77 µM
IC50 [2]: 0.5 µM
IC50 [3]: 0.1 µM
IC50 [4]: 0.1 µM

Oc1ccc(Br)cc1CN1CCN(Cc2ccc(Cl)cc2)CC1
IC50 [1]: 3.86 µM
IC50 [2]: 25 µM
IC50 [3]: 8.61 µM
IC50 [4]: 2.95 µM

Brc1ccc(Nc2nc3ccccc3nc2Nc2ccc(Br)cc2)cc1
IC50 [1]: 5.09 µM
IC50 [2]: 3.73 µM
IC50 [3]: 2.09 µM
IC50 [4]: 4.53 µM

O=C(NC1CCN(Cc2ccccc2)CC1)c1cc(-c2cccnc2)nc2ccc(Cl)cc12
IC50 [1]: 0.071 µM
IC50 [2]: 13.9 µM
IC50 [3]: > 25 µM
IC50 [4]: 0.48 µM

COc1ccc(C(C)=O)cc1N1C(=O)C2C(C1=O)C1(c3ccccc3)C(=O)C2(c2ccccc2)C(c2ccc(C)cc2)=C1c1ccc(C)cc1 (stereo not drawn)
IC50 [1]: 8.46 µM
IC50 [2]: 15.5 µM
IC50 [3]: 17.5 µM
IC50 [4]: 16.9 µM

CCCCCC(=O)N1c2ccccc2N=C2CC(c3ccc(OC)c(OC)c3)CC(O)=C2C1c1ccc(C(F)(F)F)cc1 (stereo not drawn)
IC50 [1]: 14.2 µM
IC50 [2]: 16.2 µM
IC50 [3]: > 25 µM
IC50 [4]: 21.9 µM

COc1ccc(-c2cn3c(C(=O)Nc4ccccc4Cl)c(-c4ccccc4)c4c3n2CCCC4)cc1
IC50 [1]: 12.5 µM
IC50 [2]: 21.6 µM
IC50 [3]: 0.77 µM
IC50 [4]: 1 µM

FC(F)(F)c1cccc(Nc2nc3ccccc3nc2Nc2cccc(C(F)(F)F)c2)c1
IC50 [1]: 4.27 µM
IC50 [2]: 3.45 µM
IC50 [3]: 0.14 µM
IC50 [4]: 4.13 µM

COc1ccc(C2NCCc3c2[nH]c2ccccc32)cc1CN1CCN(c2ccc(F)cc2)CC1 (stereo not drawn)
IC50 [1]: 10 µM
IC50 [2]: 16.5 µM
IC50 [3]: 3.71 µM
IC50 [4]: 10.1 µM

C=CC12CCN(CC1)C(C(O)c1ccnc3ccc(OC)cc13)C2 (stereo not drawn)
IC50 [1]: 13.1 µM
IC50 [2]: 14.4 µM
IC50 [3]: 17.3 µM
IC50 [4]: 3.21 µM

CCC(C)NCC(O)(c1ccc(Cl)cc1)c1ccc(Cl)cc1 (stereo not drawn)
IC50 [1]: 2.96 µM
IC50 [2]: 1.9 µM
IC50 [3]: 25 µM
IC50 [4]: 7.67 µM

Cc1ccc(-c2cc3nc4c(c(O)n3n2)CCCC4)cc1
IC50 [1]: 15.8 µM
IC50 [2]: 15 µM
IC50 [3]: 7.31 µM
IC50 [4]: 7.05 µM

CCOc1ccc2nc(C)cc(Nc3ccc(N(C)C)cc3)c2c1
IC50 [1]: 6.08 µM
IC50 [2]: 0.065 µM
IC50 [3]: 0.056 µM
IC50 [4]: 15.5 µM

CN(C)c1ccc(N=Cc2ccc(N3CCOCC3)cc2)cc1
IC50 [1]: 0.043 µM
IC50 [2]: 0.068 µM
IC50 [3]: 0.068 µM
IC50 [4]: 0.63 µM

O=C(NC(c1ccccc1)c1ccc2cccnc2c1O)c1ccccc1 (stereo not drawn)
IC50 [1]: 0.55 µM
IC50 [2]: 0.93 µM
IC50 [3]: 1 µM
IC50 [4]: 0.47 µM

CCOc1cc2c(cc1OCC)C(c1cc(C)c(O)c(C)c1)NCC2 (stereo not drawn)
IC50 [1]: 21.1 µM
IC50 [2]: 19.2 µM
IC50 [3]: 1 µM
IC50 [4]: 3.7 µM

FC(F)(F)c1cccc(CNC2CCN(CCc3ccccc3)CC2)c1
IC50 [1]: 5.35 µM
IC50 [2]: 0.36 µM
IC50 [3]: 15.6 µM
IC50 [4]: 1.87 µM

CC1CCN(Cc2ccc(NC(=O)c3cc4ccc5cccnc5c4[nH]3)cc2)CC1
IC50 [1]: 13.1 µM
IC50 [2]: 15.3 µM
IC50 [3]: 9.55 µM
IC50 [4]: 6.41 µM

COc1ccc(CN2CCN(Cc3ccccc3)CC2)c(O)c1
IC50 [1]: 12 µM
IC50 [2]: 15.2 µM
IC50 [3]: 8.22 µM
IC50 [4]: 10 µM

Cc1cc(C)cc(Nc2cc(C)nc3nc(C(F)(F)F)nn23)c1
IC50 [1]: 12.4 µM
IC50 [2]: 13.6 µM
IC50 [3]: 20.6 µM
IC50 [4]: 21.9 µM

CCOc1c(Cl)cc(CNCC(O)c2ccccc2)cc1OC (stereo not drawn)
IC50 [1]: 4.77 µM
IC50 [2]: 18.9 µM
IC50 [3]: 6.8 µM
IC50 [4]: 10 µM

CCOC(=O)c1cnc2ccc(OC)cc2c1Nc1ccc(N2CCN(C)CC2)cc1
IC50 [1]: 8.25 µM
IC50 [2]: 1 µM
IC50 [3]: 0.061 µM
IC50 [4]: 10 µM

c1ccc(-c2ccc(-c3nc4ccccc4[nH]3)cc2)cc1
IC50 [1]: 14.8 µM
IC50 [2]: 10 µM
IC50 [3]: 25 µM
IC50 [4]: 10 µM

C=C(C)CCC(C)N1CCC(N2CCC(C(=O)NCCc3ccccc3)CC2)CC1 (stereo not drawn)
IC50 [1]: 12.9 µM
IC50 [2]: 2.4 µM
IC50 [3]: 4.37 µM
IC50 [4]: 4.89 µM

CCCn1c(=N)c(C(=O)NC2CCCCC2)cc2c(=O)n3cccc(C)c3nc21
IC50 [1]: 6.08 µM
IC50 [2]: 13.3 µM
IC50 [3]: 5.7 µM
IC50 [4]: 2.95 µM

Oc1ccc(Br)cc1CN1CCN(Cc2cccc(F)c2)CC1
IC50 [1]: 14.3 µM
IC50 [2]: > 25 µM
IC50 [3]: 17.3 µM
IC50 [4]: 13 µM

CCOC(=O)C1=CN(C)C=C(C(=O)OCC)C1c1cc(Br)c(OCC)c(OC)c1
IC50 [1]: 2.63 µM
IC50 [2]: 0.1 µM
IC50 [3]: 0.091 µM
IC50 [4]: 14.1 µM
